From patent publication US10188737B2, “Stabilized pharmaceutical composition” (ASTELLAS PHARMA INC., priority 2015, dated 2019)

Columns and labels:
[1] = Stability of mixtures with pharmaceutical additives, sealed bottles in aluminum bags, 25° C. or 40° C., related substance (HPLC); assay type: physicochemical; conditions: dimer of compound A (RRT about 1.34), N = 2, values less than 0.05% (quantitative limit) are reference values
Procedure: (§1) The amounts of generated related substances were measured by a high performance liquid chromatographic method (an HPLC method). The amount of a related substance is calculated by measuring the peak area of each related substance contained in a pharmaceutical composition by the HPLC method, and dividing the peak area of a dimer of compound A (a related substance detected at a relative retention time of about 1.34) by the total peak area of all related substances, including compound A or a pharmaceutically acceptable salt thereof and the dimer of compound A. • Measurement wavelength: 210 nm • Column: YMC-Triart C18 (4.6 mm×150 mm, 3 μm) • Column temperature: a constant temperature around 40° C. • Mobile phase: A mixed solution of 45 mM perchloric acid aqueous solution and acetonitrile • Flow rate: about 1.2 mL/min. • Injection amount: 10 μg (corresponding to compound A) (Measurement of Water Activity)
The mixtures obtained in Examples 4 to 11 and Comparative Examples 1 to 2, as well as compound A monomethanesulfonate, were put into plastic bottles. […] After the storage, the amount of a related substance (the amount of a dimer of compound A at a relative retention time of about 1.34) was measured under the same conditions as those of Experimental Example 1. […]

[2] = Stability of mixture with milled lactose hydrate in capsules, sealed plastic bottles, 25° C. and 60% RH, related substance (HPLC); assay type: physicochemical; conditions: dimer of compound A (RRT about 1.34)
Procedure: as §1
After 1.171 mg of compound A monomethanesulfonate and 98.829 mg of milled lactose hydrate (Pharmatose 200 M, DFE Pharma) were mixed, the obtained mixture was filled into hypromellose capsules. […] After the storage, the amount of a related substance (the amount of a dimer of compound A at a relative retention time of about 1.34) was measured under the same conditions as those of Experimental Example 1. […]

[3] = Water activity value of pharmaceutical additives, humidity conditions versus dry state; assay type: physicochemical; conditions: N = 3; for Water activity value, Opened / Water activity value, Sealed: additive alone; for Water activity value, Opened: 25° C. and 60% RH (opened) for 3 days; for Water activity value, Sealed: in bottles at 25° C. for 3 days in the presence of a desiccant; for Water activity value, Difference: opened minus sealed
Procedure: A water activity meter (AQUA LAB Series 4TE (AQUA LAB)) was used to measure the water activity value of each pharmaceutical composition (including a capsule shell) at 25° C.
Pharmaceutical additives (5000 mg each) used in Examples 4 to 11 and Comparative Examples 1 to 2 were allowed to stand in bottles (30 mL) at 25° C. for 3 days in the presence of a desiccant (2 g), and the water activity value was measured under the same conditions as those of Experimental Example 1. Further, the same samples were allowed to stand in bottles under storage conditions of 25° C. and 60% RH (opened) for 3 days, and the water activity value was measured under the same conditions as those of Experimental Example 1
The difference between the water activity value after the storage in the opened state and the water activity value after the storage in the sealed state is summarized in Table 7.

[4] = test system: epidermal growth factor receptor (EGFR) mutant kinase; conditions: disclosed in Patent literature 1 (WO 2013/108754); cited from earlier work

| Compound | Amount of related substance, 25° C., After 1 month ([1]; 25° C.) | Amount of related substance, 40° C., After 1 month ([1]; 40° C.) | Amount of related substance, 25° C. · 60% RH After 1 month [2] | Water activity value, Opened [3] | Water activity value, Sealed [3] | Water activity value, Difference [3] | inhibitory action on an epidermal growth factor receptor (EGFR) mutant kinase [4] |
| --- | --- | --- | --- | --- | --- | --- | --- |
| C=CC(=O)N1CC[C@@H](Oc2nc(Nc3ccc(N4CCC(N5CCN(C)CC5)CC4)cc3)c(C(N)=O)nc2CC)C1.CS(=O)(=O)O [Compound A monomethanesulfonate (alone), 5-{[(3R)-1-acryloylpyrrolidin-3-yl]oxy}-6-ethyl-3-({4-[4-(4-methylpiperazin-1-yl)piperidin-1-yl]phenyl}amino)-pyrazine-2-carboxamide monomethanesulfonate] | 0.03% | 0.03% | 0.44% |  |  |  |  |
| O.OC[C@H]1O[C@@H](O[C@H]2[C@H](O)[C@@H](O)C(O)O[C@@H]2CO)[C@H](O)[C@@H](O)[C@H]1O (stereo partly shown) [Lactose hydrate] |  |  |  | 0.46 | 0.30 | 0.16 |  |
| OC[C@@H](O)[C@@H](O)[C@H](O)[C@H](O)CO [Mannitol] |  |  |  | 0.45 | 0.35 | 0.10 |  |
| C=CC(=O)N1CC[C@@H](Oc2nc(Nc3ccc(N4CCC(N5CCN(C)CC5)CC4)cc3)c(C(N)=O)nc2CC)C1 [compound A, 5-{[(3R)-1-Acryloylpyrrolidin-3-yl]oxy}-6-ethyl-3-({4-[4-(4-methylpiperazin-1-yl)piperidin-1-yl]phenyl}amino)-pyrazine-2-carboxamide] |  |  |  |  |  |  | confirmed |

More lines, main results first:

| Amount of related substance, 25° C., After 1 month ([1]; 25° C.) | Amount of related substance, 40° C., After 1 month ([1]; 40° C.) | Amount of related substance, 25° C. · 60% RH After 1 month [2] | Water activity value, Opened [3] | Water activity value, Sealed [3] | Water activity value, Difference [3] | Compound | inhibitory action on an epidermal growth factor receptor (EGFR) mutant kinase [4] |
| --- | --- | --- | --- | --- | --- | --- | --- |
|  |  |  | 0.43 | 0.38 | 0.05 | OC[C@H]1O[C@@](CO)(O[C@H]2O[C@H](CO)[C@@H](O)[C@H](O)[C@H]2O)[C@@H](O)[C@@H]1O [Sucrose] |  |
|  |  |  | 0.40 | 0.32 | 0.08 | OC[C@H]1O[C@H](O[C@H]2O[C@H](CO)[C@@H](O)[C@H](O)[C@H]2O)[C@H](O)[C@@H](O)[C@@H]1O [Trehalose] |  |
